Data set [1] deals with rat islets. In words: Rat islet insulin secretion. The note with it: read-out: Rat islet insulin secretion Mean ED50. The class given is cell-based. The protocol:
To assess action of compounds of the present invention in a system representing physiological GLP-1R and GIP-R expression levels insulin secretion, compounds are tested for effects on insulin secretion from wild-type rodent islets.
After common bile duct cannulation in male C57B1/6 mice (22-26 g) or male Sprague-Dawley rats (approx. 250 g), the pancreas is distended with Hank's buffer (3 ml for mice or 10 ml for rats, containing 2% BSA and 0.75 mg/ml Clzyme collagenase (VitaCyte). Subsequently, tissues are digested in Hank's buffer at 37° C. for 11-13 minutes (mice) or 14-16 minutes for rat pancreata. Purified islets (Histopaque-1100 gradient [Sigma-Aldrich], […] at 750× gravity) are cultured overnight in RPMI-1640 medium (Invitrogen) containing 10% FBS, 100 U/ml penicillin and 100 μg/ml streptomycin, and preconditioned by starvation in Earle's Balanced Salt Solution (EBSS) supplemented with 0.1% BSA and 2.8 mM glucose. Subsequently, islets are incubated in EBSS (Invitrogen) supplemented with 0.1% BSA, 2.8-11.2 mM glucose and increasing levels of compound (6 batches of 4 islets/condition). GLP-1(7-36)amide (30 nM) is used as a positive control. Insulin is measured over 90 minutes in supernatant using the MSD Insulin Assay (Meso Scale, Gaithersburg, Md.).

Data set [2] is described as follows: Pharmacokinetics in cynomolgus monkeys. The class given is in vivo. The note with it: cynomolgus monkey, plasma, single SC 0.2 mg/kg, male monkeys, n = 2. The method, boiled down: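 Single 0.2 mg/kg dose, intravenous or subcutaneous, in 20 mM citrate buffer pH 7.0; blood sampled from 2 to 312 hours post-dose. Plasma extracted with N-butanol, reconstituted in 30% acetonitrile/0.1% formic acid and quantified by LC/MS on a C5 column with Q-Exactive detection.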

The test system of data set [3] is mouse islets. In words: Mouse islet insulin secretion. The note with it: read-out: Mouse islet insulin secretion Mean ED50. The class given is cell-based.
For data set [4], the target named is T1, human GLP-1R (Homo sapiens, UniProt P43220).
T1 construct: expressed in transfected cells; host or cells: 293HEK, Hygromycin-selected; crude plasma membranes
The class given is binding.

Data set [5] is described as follows: Rat in vivo insulin secretion following intravenous glucose (IVGTT). The conditions noted are these: s.c. 16 hour prior to glucose. The gist of the method:
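Male Wistar rats dosed s.c. with vehicle or 0.1–10 nmol/kg 16 h before glucose, then fasted and anesthetized with pentobarbital i.p. (65 mg/kg). Glucose ([…]) given after a time-zero bleed; plasma sampled at 2, 4, 6, 10, 20, 30 min. Glucose measured by analyzer, insulin by MSD immunoassay.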

Data set [6] in a line: Weight loss, body composition and hepatic steatosis in DIO mice. The class given is in vivo, mouse. The note with it: for Blood Glucose: Day 15. The method, boiled down:
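C57/BL6 DIO mice, individually housed at 24 °C, 12 h light/dark, food and water ad libitum; daily body weight and food intake, weight change versus pre-dose value of the same animal. Day 15: tail-vein glucose, then liver triglycerides and plasma cholesterol; ANOVA with Dunnett's test, ED50 for weight loss by non-linear fit.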

Data set [7] addresses T1, human GLP-1R. In words: Functional hGLP-1R cAMP assay in HEK-293 clonal cells. The note with it: HEK293; percent of maximal response of hGLP-1(7-36)NH2. The format is cell-based. On the technique in general: Cyclic AMP is a second messenger, typically raised through Gs and lowered through Gi signalling.
Description: (§1) After an incubation of 60 minutes at room temperature, the resulting increase in intracellular cAMP is quantitatively determined using the CisBio cAMP Dynamic 2 HTRF Assay Kit (Bedford, Mass.). Briefly, cAMP levels within the cell are detected by adding the cAMP-d2 conjugate in cell lysis buffer (20 μl) followed by the antibody anti-cAMP-Eu^3+-Cryptate, also in cell lysis buffer (20 μl). The resulting competitive assay is incubated for at least 60 minutes at room temperature, then detected using a PerkinElmer Envision® instrument with excitation at 320 nm and emission at 665 nm and 620 nm Envision units (emission at 665 nm/620 nm*10,000) are inversely proportional to the amount of cAMP present and are converted to nM cAMP per well using a cAMP standard curve. […] A relative EC50 value and percent top (Emax) is derived by non-linear regression analysis using the percent maximal response versus the concentration of the compound of the present invention, fitted to a four-parameter logistic equation.
Data set [8] concerns the target T2, human GIP-R (Homo sapiens, UniProt P48546).
T2 sequence (P48546 22-466): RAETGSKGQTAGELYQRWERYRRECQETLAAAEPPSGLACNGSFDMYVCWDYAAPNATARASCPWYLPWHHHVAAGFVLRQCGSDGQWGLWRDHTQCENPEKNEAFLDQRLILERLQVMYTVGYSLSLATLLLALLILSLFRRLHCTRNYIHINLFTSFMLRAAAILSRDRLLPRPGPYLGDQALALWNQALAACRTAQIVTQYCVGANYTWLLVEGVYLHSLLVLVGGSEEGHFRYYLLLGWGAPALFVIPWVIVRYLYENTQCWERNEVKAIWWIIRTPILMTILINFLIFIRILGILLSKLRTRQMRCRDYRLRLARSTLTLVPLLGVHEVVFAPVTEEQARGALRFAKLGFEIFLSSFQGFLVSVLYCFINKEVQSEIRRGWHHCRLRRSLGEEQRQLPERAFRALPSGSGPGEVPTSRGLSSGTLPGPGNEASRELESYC
In words: Functional hGIP-R cAMP assay in HEK-293 clonal cells. The note with it: HEK293, read-out: Human GIP-R Emax.
Description: as §1

Data set [9] deals with Human GCGR (Homo sapiens, UniProt P47871). In words: Functional hGCGR cAMP assay in HEK-293 clonal cells.
Data set [10] concerns the target T3, GIP receptor (Mus musculus, UniProt Q0P543).
T3 construct: endogenous in cells; host or cells: GLUTag cells (murine enteroendocrine line)
T3 sequence (Q0P543 19-460): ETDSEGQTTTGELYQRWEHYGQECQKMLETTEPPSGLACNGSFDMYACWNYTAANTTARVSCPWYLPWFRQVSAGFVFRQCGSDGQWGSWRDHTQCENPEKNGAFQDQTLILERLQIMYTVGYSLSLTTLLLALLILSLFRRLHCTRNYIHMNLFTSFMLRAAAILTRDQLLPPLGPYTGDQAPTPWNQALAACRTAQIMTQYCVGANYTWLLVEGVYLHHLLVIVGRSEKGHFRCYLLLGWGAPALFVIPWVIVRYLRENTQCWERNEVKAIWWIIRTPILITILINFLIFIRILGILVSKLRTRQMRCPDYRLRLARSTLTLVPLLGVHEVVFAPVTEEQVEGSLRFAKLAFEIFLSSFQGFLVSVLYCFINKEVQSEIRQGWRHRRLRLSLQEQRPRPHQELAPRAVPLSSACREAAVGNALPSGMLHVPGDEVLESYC
Kind of data set: Intracellular cAMP in GLUTag incretin-secreting cells. The format is cell-based, murine. The note with it: 0.001-3 μM.
Description: On the day of the assay, media is decanted from cells and 50 μl EBSS Buffer (0.1% BSA, 2 mM glucose and 0.25 mM IBMX) containing a range of compound concentrations (0.001-3 μM) is added to cells. The plate is incubated at 37° C. for one hour and cAMP levels determined using Cisbio Dynamic 2 cAMP HTRF kit (Bedford, Mass.). 25 μl of anti-cAMP cryptate and 25 μl cAMP d2 is added to each well and plates incubated for one hour at room temperature. […] Data is analyzed with GraphPad using a 4-parameter non-linear logistic algorithm

Several values for one entry are separate records, joined by “and”; a condition that tells them apart may be missing. Equal values may be shown once.

T1 sequence (P43220 24-463): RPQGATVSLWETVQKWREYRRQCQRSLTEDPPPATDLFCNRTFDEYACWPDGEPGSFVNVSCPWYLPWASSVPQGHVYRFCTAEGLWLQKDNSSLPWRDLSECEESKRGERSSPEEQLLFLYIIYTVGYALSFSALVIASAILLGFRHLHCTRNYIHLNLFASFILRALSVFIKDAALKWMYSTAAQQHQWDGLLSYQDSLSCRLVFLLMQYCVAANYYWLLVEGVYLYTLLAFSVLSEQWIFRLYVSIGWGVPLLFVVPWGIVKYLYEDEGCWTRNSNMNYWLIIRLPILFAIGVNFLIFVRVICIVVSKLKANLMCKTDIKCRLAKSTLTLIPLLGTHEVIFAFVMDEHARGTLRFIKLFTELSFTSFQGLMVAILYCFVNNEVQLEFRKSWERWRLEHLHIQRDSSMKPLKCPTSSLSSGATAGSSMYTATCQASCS
Human GCGR, sequence (P47871 26-477): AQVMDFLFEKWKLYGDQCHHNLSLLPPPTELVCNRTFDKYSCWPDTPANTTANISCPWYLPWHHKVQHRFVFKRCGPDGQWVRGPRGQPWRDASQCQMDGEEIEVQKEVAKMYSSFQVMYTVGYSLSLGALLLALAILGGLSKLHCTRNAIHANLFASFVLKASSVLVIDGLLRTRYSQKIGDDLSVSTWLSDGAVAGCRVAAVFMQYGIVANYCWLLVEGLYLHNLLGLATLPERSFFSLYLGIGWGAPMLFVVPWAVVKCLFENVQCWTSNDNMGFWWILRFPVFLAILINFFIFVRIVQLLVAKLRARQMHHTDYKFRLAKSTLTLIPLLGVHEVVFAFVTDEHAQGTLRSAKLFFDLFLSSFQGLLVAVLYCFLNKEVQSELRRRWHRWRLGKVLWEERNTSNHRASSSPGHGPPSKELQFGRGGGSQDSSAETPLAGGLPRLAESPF

For the compound `CC[C@H](C)[C@H](NC(=O)[C@H](CC(C)C)NC(=O)[C@H](Cc1c[nH]c2ccccc12)NC(=O)[C@H](CCC(N)=O)NC(=O)[C@@H](NC(=O)[C@H](Cc1ccccc1)NC(=O)[C@H](C)NC(=O)[C@H](CCCCNC(=O)COCCOCCNC(=O)COCCOCCNC(=O)CC[C@H](NC(=O)CCCCCCCCCCCCCCCCC(=O)O)C(=O)O)NC(=O)[C@H](CCC(N)=O)NC(=O)[C@H](C)NC(=O)[C@@H](NC(=O)[C@H](CCCCN)NC(=O)[C@H](CC(=O)O)NC(=O)[C@H](CC(C)C)NC(=O)C(C)(C)NC(=O)[C@@H](NC(=O)[C@H](CO)NC(=O)[C@H](Cc1ccc(O)cc1)NC(=O)[C@H](CC(=O)O)NC(=O)[C@H](CO)NC(=O)[C@@H](NC(=O)[C@H](Cc1ccccc1)NC(=O)[C@@H](NC(=O)CNC(=O)[C@H](CCC(=O)O)NC(=O)C(C)(C)NC(=O)[C@@H](N)Cc1ccc(O)cc1)[C@@H](C)O)[C@@H](C)O)[C@@H](C)CC)[C@@H](C)CC)C(C)C)C(=O)N[C@@H](C)C(=O)NCC(=O)NCC(=O)N1CCC[C@H]1C(=O)N[C@@H](CO)C(=O)N[C@@H](CO)C(=O)NCC(=O)N[C@@H](C)C(=O)N1CCC[C@H]1C(=O)N1CCC[C@H]1C(=O)N1CCC[C@H]1C(=O)N[C@@H](CO)C(N)=O` [Example 3], the EC50 in data set [1] was 34.9 nM; in data set [3] it was 58.9 nM; in data set [9] it was over 1000 nM. Moreover, the apparent clearance (CL/F) (commonly the apparent clearance, not corrected for the fraction that reaches the circulation) in data set [2] is 1.3 mL/h/kg. The highest level in [2] (Cmax) was 3000 ng/mL. Also, the AUC(0-inf) in [2] (read-out: Mean AUC0-inf) was 153 µg·h/mL. Also, the half-life in [2] (read-out: Mean T1/2 (converted)) was 34 h. For the same compound, in [2] (read-out: Mean Tmax), the Tmax (in general, the time at which the peak concentration occurs) is 8 h. The “Molar ratio of hGLP-1R/hGIP-R” value in [4] (normalized by factor 4.53 from native GIP and GLP-1 binding) amounted to 3.53. Also, in [4] (ratio of Ki values), the “Absolute ratio of hGLP-1R/hGIP-R” value was 16. Besides, the “% max increase of insulin AUC” value in data set [5] is 314 +/− 38% and 219 +/− 19%. Besides, the “ED50 for insulin, rat IVGTT” value in [5] was 1.00 nmol/kg and 1.42 nmol/kg. The “% Change from starting body weight” value is listed as −13.38 ± 0.88 % in data set [6] (Table 8, 10 nmol/kg); −18.13 ± 1.44 % in data set [6] (Table 8, 30 nmol/kg); −25.84 ± 1.93 % in data set [6] (Table 8, 100 nmol/kg). Besides, the “% Change from starting fat mass” value was −20.76 ± 2.42 % in data set [6] (Table 8, 10 nmol/kg); −30.90 ± 2.06 % in data set [6] (Table 8, 30 nmol/kg); −45.92 ± 2.15 % in data set [6] (Table 8, 100 nmol/kg). In addition, the “Plasma Cholesterol” value in [6] (Table 11, 10 nmol/kg) stood at 213.2 ± 15.54 mg/dL; in [6] (Table 11, 30 nmol/kg) it was 177.4 ± 16.58 mg/dL; in [6] (Table 11, 100 nmol/kg), 194.00 ± 14.40 mg/dL. The “Plasma Triglycerides” value in data set [6] (Table 11, 10 nmol/kg) is 30.38 ± 8.23 mg/dL; in data set [6] (Table 11, 30 nmol/kg), 21.32 ± 2.48 mg/dL; in data set [6] (Table 11, 100 nmol/kg) it was 20.55 ± 4.60 mg/dL. The “Blood Glucose” value in data set [6] (Table 11, 10 nmol/kg) is 109.5 ± 2.35 mg/dL; in data set [6] (Table 11, 30 nmol/kg), 107.6 ± 1.32 mg/dL; in data set [6] (Table 11, 100 nmol/kg), 102.00 ± 0.50 mg/dL. Besides, the maximal effect (Emax) (in general, the size of the effect at its maximum, as opposed to the concentration needed) in [7] was 96.2 ± 6.2%; in data set [8], 106 ± 3%.

On to `CC[C@H](C)[C@H](NC(=O)[C@H](Cc1ccccc1)NC(=O)[C@H](CCC(=O)O)NC(=O)[C@H](CCCCN)NC(=O)[C@H](C)NC(=O)[C@H](C)NC(=O)[C@H](CCC(N)=O)NC(=O)CNC(=O)[C@H](CCC(=O)O)NC(=O)[C@H](CC(C)C)NC(=O)[C@H](Cc1ccc(O)cc1)NC(=O)[C@H](CO)NC(=O)[C@H](CO)NC(=O)[C@@H](NC(=O)[C@H](CC(=O)O)NC(=O)[C@H](CO)NC(=O)[C@@H](NC(=O)[C@H](Cc1ccccc1)NC(=O)[C@@H](NC(=O)CNC(=O)[C@H](CCC(=O)O)NC(=O)[C@H](C)NC(=O)[C@@H](N)Cc1c[nH]cn1)[C@@H](C)O)[C@@H](C)O)C(C)C)C(=O)N[C@@H](C)C(=O)N[C@@H](Cc1c[nH]c2ccccc12)C(=O)N[C@@H](CC(C)C)C(=O)N[C@H](C(=O)N[C@@H](CCCCN)C(=O)NCC(=O)N[C@@H](CCCNC(=N)N)C(N)=O)C(C)C` [GLP-1,7-36-NH2], for which, in [10], the “cAMP accumulation in GLUTag cells” value is “fails to induce any changes in cAMP at all concentrations tested”.

These data come from US9474780B2, “GIP and GLP-1 co-agonist compounds” (Eli Lilly and Company, priority 2015, dated 2016).
